# Measured values taken from publication PMC7181660, “A novel specific PERK activator reduces toxicity and extends survival in Huntington's disease models” (Scientific Reports, 2020).
# Where two headings read alike, the source gives them in different places.
# Key:
# Assay in all cases: biochemical
# Assay type in all cases: biochemical
# panel of 391 kinases [1] = target: panel of 391 kinases (Homo sapiens, UniProt Q56UN5); conditions: YSK4/MAP3K19, MK-28 1 µM, ATP 1 µM
# panel of 391 kinases [2] = target: panel of 391 kinases (Homo sapiens, UniProt Q96RG2); conditions: PASK, MK-28 1 µM, ATP 1 µM
# panel of 391 kinases [3] = target: panel of 391 kinases (Homo sapiens, UniProt P07949); conditions: RET, MK-28 1 µM, ATP 1 µM
# panel of 391 kinases [4] = target: panel of 391 kinases (Homo sapiens, UniProt P42681); conditions: TXK, MK-28 1 µM, ATP 1 µM
# panel of 391 kinases [5] = target: panel of 391 kinases (Homo sapiens, UniProt P51812); conditions: RSK2, MK-28 1 µM, ATP 1 µM
# panel of 391 kinases [6] = target: panel of 391 kinases (Homo sapiens, UniProt P54646); conditions: compound at 1 µM, single dose in duplicates, 1 µM ATP; for remaining activity at 1 µM: read-out: % Enzyme Activity (relative to DMSO controls)
# panel of 391 kinases [7] = target: panel of 391 kinases (Homo sapiens, UniProt O00238); conditions: ALK6/BMPR1B, MK-28 1 µM, ATP 1 µM
# panel of 391 kinases [8] = target: T1, panel of 391 kinases (Homo sapiens, UniProt P10398); conditions: ARAF, MK-28 1 µM, ATP 1 µM
# T1 sequence (P10398 1-606): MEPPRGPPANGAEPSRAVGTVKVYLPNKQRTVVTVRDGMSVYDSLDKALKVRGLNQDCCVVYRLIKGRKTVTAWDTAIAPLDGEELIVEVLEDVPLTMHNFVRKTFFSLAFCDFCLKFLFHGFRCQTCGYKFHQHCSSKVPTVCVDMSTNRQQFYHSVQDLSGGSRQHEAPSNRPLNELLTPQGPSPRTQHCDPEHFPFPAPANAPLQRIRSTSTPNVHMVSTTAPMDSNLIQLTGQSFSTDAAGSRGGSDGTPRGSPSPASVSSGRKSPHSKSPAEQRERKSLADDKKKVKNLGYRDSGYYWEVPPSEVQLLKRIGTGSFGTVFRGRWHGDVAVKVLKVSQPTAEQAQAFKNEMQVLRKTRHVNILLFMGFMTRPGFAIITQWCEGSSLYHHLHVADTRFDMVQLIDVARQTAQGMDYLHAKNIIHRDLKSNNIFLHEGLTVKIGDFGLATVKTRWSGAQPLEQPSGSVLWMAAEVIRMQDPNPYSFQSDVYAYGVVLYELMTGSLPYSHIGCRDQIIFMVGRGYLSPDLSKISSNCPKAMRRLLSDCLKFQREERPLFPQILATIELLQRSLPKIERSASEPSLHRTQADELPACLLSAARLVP
# panel of 391 kinases [9] = target: panel of 391 kinases (Homo sapiens, UniProt Q16539); conditions: P38a/MAPK14, MK-28 1 µM, ATP 1 µM
# panel of 391 kinases [10] = target: panel of 391 kinases (Homo sapiens, UniProt O96013); conditions: PAK4, MK-28 1 µM, ATP 1 µM
# panel of 391 kinases [11] = target: panel of 391 kinases (Homo sapiens, UniProt Q9NWZ3); conditions: IRAK4, MK-28 1 µM, ATP 1 µM
# panel of 391 kinases [12] = target: panel of 391 kinases (Homo sapiens, UniProt P42679); conditions: CTK/MATK, MK-28 1 µM, ATP 1 µM
# panel of 391 kinases [13] = target: panel of 391 kinases (Homo sapiens, UniProt P53779); conditions: JNK3, MK-28 1 µM, ATP 1 µM
# panel of 391 kinases [14] = target: panel of 391 kinases (Homo sapiens, UniProt P68400); conditions: CK2a, MK-28 1 µM, ATP 1 µM
# panel of 391 kinases [15] = target: panel of 391 kinases (Homo sapiens, UniProt P27448); conditions: MARK3, MK-28 1 µM, ATP 1 µM
# panel of 391 kinases [16] = target: panel of 391 kinases (Homo sapiens, UniProt P28482); conditions: ERK2/MAPK1, MK-28 1 µM, ATP 1 µM
# panel of 391 kinases [17] = target: panel of 391 kinases (Homo sapiens, UniProt Q32MK0); conditions: MYLK3, MK-28 1 µM, ATP 1 µM
# panel of 391 kinases [18] = target: panel of 391 kinases (Homo sapiens, UniProt Q5S007); conditions: LRRK2, MK-28 1 µM, ATP 1 µM
# panel of 391 kinases [19] = target: panel of 391 kinases (Homo sapiens, UniProt P45983); conditions: JNK1, MK-28 1 µM, ATP 1 µM
# panel of 391 kinases [20] = target: panel of 391 kinases (Homo sapiens, UniProt P51451); conditions: BLK, MK-28 1 µM, ATP 1 µM
# panel of 391 kinases [21] = target: panel of 391 kinases (Homo sapiens, UniProt O75716); conditions: STK16, MK-28 1 µM, ATP 1 µM
# [22] = read-out: % Enzyme Activity (relative to DMSO controls)
smiles,measurement,setting,value
CN(/N=C\c1ccc(O)c(O)c1)c1nc(-c2ccccc2)cc(-c2ccccc2)n1 [MK-28],% Enzyme Activity (relative to DMSO controls),panel of 391 kinases [1],104.21%
same,remaining activity at 1 µM,panel of 391 kinases [1]; [22],106%
same,% Enzyme Activity (relative to DMSO controls),panel of 391 kinases [2],91.44%
same,remaining activity at 1 µM,panel of 391 kinases [2]; [22],95.4%
same,% Enzyme Activity (relative to DMSO controls),panel of 391 kinases [3],98.07%
same,remaining activity at 1 µM,panel of 391 kinases [3]; [22],99.2%
same,% Enzyme Activity (relative to DMSO controls),panel of 391 kinases [4],93.01%
same,remaining activity at 1 µM,panel of 391 kinases [4]; [22],94.1%
same,% Enzyme Activity (relative to DMSO controls),panel of 391 kinases [5],95.23%
same,remaining activity at 1 µM,panel of 391 kinases [5]; [22],99.7%
same,% Enzyme Activity (relative to DMSO controls),panel of 391 kinases [6]; kinase AMPK(A2/B1/G1),91.41%
same,remaining activity at 1 µM,panel of 391 kinases [6]; kinase AMPK(A2/B1/G1),93%
same,% Enzyme Activity (relative to DMSO controls),panel of 391 kinases [6]; kinase AMPK(A2/B2/G1),106.33%
same,remaining activity at 1 µM,panel of 391 kinases [6]; kinase AMPK(A2/B2/G1),108%
same,% Enzyme Activity (relative to DMSO controls),panel of 391 kinases [6]; kinase AMPK(A2/B2/G2),103.36%
same,remaining activity at 1 µM,panel of 391 kinases [6]; kinase AMPK(A2/B2/G2),104%
same,% Enzyme Activity (relative to DMSO controls),panel of 391 kinases [6]; kinase AMPK(A2/B2/G3),96.60%
same,remaining activity at 1 µM,panel of 391 kinases [6]; kinase AMPK(A2/B2/G3),98.9%
same,% Enzyme Activity (relative to DMSO controls),panel of 391 kinases [7],100.96%
same,remaining activity at 1 µM,panel of 391 kinases [7]; [22],101%
same,% Enzyme Activity (relative to DMSO controls),panel of 391 kinases [8],93.30%
same,remaining activity at 1 µM,panel of 391 kinases [8]; [22],96.2%
same,% Enzyme Activity (relative to DMSO controls),panel of 391 kinases [9],98.53%
same,remaining activity at 1 µM,panel of 391 kinases [9]; [22],100%
same,% Enzyme Activity (relative to DMSO controls),panel of 391 kinases [10],97.48%
same,remaining activity at 1 µM,panel of 391 kinases [10]; [22],97.6%
same,% Enzyme Activity (relative to DMSO controls),panel of 391 kinases [11],124.00%
same,remaining activity at 1 µM,panel of 391 kinases [11]; [22],129%
same,% Enzyme Activity (relative to DMSO controls),panel of 391 kinases [12],98.98%
same,remaining activity at 1 µM,panel of 391 kinases [12]; [22],101%
same,% Enzyme Activity (relative to DMSO controls),panel of 391 kinases [13],94.93%
same,remaining activity at 1 µM,panel of 391 kinases [13]; [22],99.6%
same,% Enzyme Activity (relative to DMSO controls),panel of 391 kinases [14],76.99%
same,remaining activity at 1 µM,panel of 391 kinases [14]; [22],81.1%
same,% Enzyme Activity (relative to DMSO controls),panel of 391 kinases [15],98.84%
same,remaining activity at 1 µM,panel of 391 kinases [15]; [22],99%
same,% Enzyme Activity (relative to DMSO controls),panel of 391 kinases [16],105.81%
same,remaining activity at 1 µM,panel of 391 kinases [16]; [22],107%
same,% Enzyme Activity (relative to DMSO controls),panel of 391 kinases [17],104.33%
same,remaining activity at 1 µM,panel of 391 kinases [17]; [22],106%
same,% Enzyme Activity (relative to DMSO controls),panel of 391 kinases [18],90.69%
same,remaining activity at 1 µM,panel of 391 kinases [18]; [22],92.2%
same,% Enzyme Activity (relative to DMSO controls),panel of 391 kinases [19],98.63%
same,remaining activity at 1 µM,panel of 391 kinases [19]; [22],99.6%
same,% Enzyme Activity (relative to DMSO controls),panel of 391 kinases [20],82.35%
same,remaining activity at 1 µM,panel of 391 kinases [20]; [22],85.3%
same,% Enzyme Activity (relative to DMSO controls),panel of 391 kinases [21],108.93%
same,remaining activity at 1 µM,panel of 391 kinases [21]; [22],109%
